Test results from article PMC10104807, “Modulation of tau tubulin kinases (TTBK1 and TTBK2) impacts ciliogenesis” (Scientific Reports, 2023).

Tests used:
HASPIN = target: T1, HASPIN (Homo sapiens, UniProt Q8TF76); experiment: DiscoverX scanMAX binding assay; conditions: 1 μM
T1 construct: purchased Eurofins (radiometric) / Eurofins DiscoverX scanMAX / Reaction Biology / SignalChem
Summary of the method: (§1)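 Compound was profiled at 1 µM in a binding-format (not enzymatic) kinase panel covering 403 wild-type human kinases. Binding was expressed as percent of control.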

[1] = Kinetic solubility (Analiza); format: physicochemical; conditions: PBS pH 7.4, from 10 mM DMSO stocks
Source text: Calculated solubility values in Table 2 have been corrected for background nitrogen present in the DMSO and media.

TSSK3 = target: T2, TSSK3 (Homo sapiens, UniProt Q96PN8); experiment: DiscoverX scanMAX binding assay; conditions: 1 μM
T2 construct: purchased Eurofins
T2 sequence (Q96PN8 1-268): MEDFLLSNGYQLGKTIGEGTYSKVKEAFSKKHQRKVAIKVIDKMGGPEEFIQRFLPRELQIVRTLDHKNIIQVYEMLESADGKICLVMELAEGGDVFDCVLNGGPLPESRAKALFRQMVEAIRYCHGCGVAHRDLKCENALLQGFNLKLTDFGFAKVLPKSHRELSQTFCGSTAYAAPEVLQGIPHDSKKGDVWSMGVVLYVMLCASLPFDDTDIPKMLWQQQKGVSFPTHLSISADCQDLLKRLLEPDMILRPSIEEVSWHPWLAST
Summary of the method: as §1

T1 sequence (Q8TF76 whole entry): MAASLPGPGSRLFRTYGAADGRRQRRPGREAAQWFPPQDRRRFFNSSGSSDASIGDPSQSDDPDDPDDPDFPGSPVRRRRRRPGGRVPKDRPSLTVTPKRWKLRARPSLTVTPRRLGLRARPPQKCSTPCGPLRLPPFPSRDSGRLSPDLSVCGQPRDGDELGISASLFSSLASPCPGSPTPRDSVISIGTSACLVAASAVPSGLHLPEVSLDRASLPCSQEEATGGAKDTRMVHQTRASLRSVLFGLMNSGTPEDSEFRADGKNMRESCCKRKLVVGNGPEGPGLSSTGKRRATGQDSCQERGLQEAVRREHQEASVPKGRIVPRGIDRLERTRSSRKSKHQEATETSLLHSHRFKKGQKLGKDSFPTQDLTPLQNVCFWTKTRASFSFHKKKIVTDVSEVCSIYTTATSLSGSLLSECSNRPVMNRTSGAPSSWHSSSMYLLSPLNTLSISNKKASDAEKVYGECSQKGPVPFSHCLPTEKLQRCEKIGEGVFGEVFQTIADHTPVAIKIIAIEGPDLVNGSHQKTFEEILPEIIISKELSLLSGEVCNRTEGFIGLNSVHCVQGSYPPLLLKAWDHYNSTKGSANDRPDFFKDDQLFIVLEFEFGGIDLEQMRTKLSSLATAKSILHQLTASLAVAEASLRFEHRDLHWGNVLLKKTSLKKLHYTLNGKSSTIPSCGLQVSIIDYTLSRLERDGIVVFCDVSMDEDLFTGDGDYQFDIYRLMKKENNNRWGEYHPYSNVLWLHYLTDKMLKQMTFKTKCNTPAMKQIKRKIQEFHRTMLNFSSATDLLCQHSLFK

Row | Compound | HASPIN % control at 1000nM (HASPIN) | Kinetic solubility [1] | TSSK3 % control at 1000nM / DiscoverX PoC value (TSSK3)
1 | CC(C)(O)C#Cc1ccc2[nH]c3c(c2c1)-c1nc(N)ncc1CC3 [Compound 1] | 0.3 % control | – | –
2 | CC(C)(O)C#Cc1ccc2[nH]cc(-c3ccnc(N)n3)c2c1 [Compound 3] | – | 133 µM | 8.1 % control
